In patent US10815205B2, “Amide-substituted phenyltriazole derivatives and uses thereof” (BAYER PHARMA AKTIENGESELLSCHAFT, priority 2016, dated 2020):

What was measured:
human V1a receptor = target: T1, human V1a receptor (Homo sapiens, UniProt P37288); assay: Cellular in vitro assay for vasopressin receptor activity, V1a receptor cell line (aequorin luminescence); format: cell-based; conditions: Table 1A; for IC50: CHO cell line transfected with human V1a receptor, [Arg8]-vasopressin at EC50, read-out: IC50 hV1a; for ratio IC50 hV2/hV1a: selectivity V1a over V2
T1 construct: expressed in transfected cells; host or cells: CHO K1 (ATCC), also stably transfected with a modified aequorin
T1 sequence (P37288 whole entry): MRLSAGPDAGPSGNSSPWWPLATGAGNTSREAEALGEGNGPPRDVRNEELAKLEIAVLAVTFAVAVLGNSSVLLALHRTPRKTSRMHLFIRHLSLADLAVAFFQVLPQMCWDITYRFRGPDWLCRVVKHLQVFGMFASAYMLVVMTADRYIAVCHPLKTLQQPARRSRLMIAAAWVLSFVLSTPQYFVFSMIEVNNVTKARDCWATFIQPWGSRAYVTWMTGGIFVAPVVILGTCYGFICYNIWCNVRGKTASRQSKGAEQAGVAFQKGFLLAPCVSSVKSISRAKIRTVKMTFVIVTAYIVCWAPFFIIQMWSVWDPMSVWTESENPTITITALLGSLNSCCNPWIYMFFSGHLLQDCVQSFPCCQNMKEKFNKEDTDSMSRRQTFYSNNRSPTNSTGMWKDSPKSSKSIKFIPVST
Procedure: (§1) B-1. Cellular In Vitro Assay for Determining Vasopressin Receptor Activity
(§2) The identification of agonists and antagonists of the V1a and V2 vasopressin receptors from humans, rats and dogs as well as the quantification of the activity of the compounds of the invention is carried out using recombinant cell lines. These cell lines originally derive from a hamster's ovary epithelial cell (Chinese Hamster Ovary, CHO K1, ATCC: American Type Culture Collection, Manassas, Va. 20108, USA). The test cell lines constitutively express the human, rat or dog V1a or V2 receptors. In case of the Gαq-coupled V1a receptors, cells are also stably transfected with a modified form of the calcium-sensitive photoproteins aequorin (human and rat V1a) or obe-lin (dog V1a), which, after reconstitution with the cofactor coelenterazine, emit light when there are increases in free calcium concentrations [Rizzuto R, Simpson A W, Brini M, Pozzan T, Nature 358, 325-327 (1992); Illarionov B A, Bondar V S, Illarionova V A, Vysotski E S, Gene 153 (2), 273-274 (1995)]. The resulting vasopressin receptor cells react to stimulation of the recombinantly expressed V1a receptors by intracellular release of calcium ions, which can be quantified by the resulting photoprotein luminescence. The Gs-coupled V2 receptors are stably transfected into cell lines expressing the gene for firefly luciferase under control of a CRE-responsible promoter. Activation of V2 receptors induces the activation of the CRE-responsive promoter via cAMP increase, thereby inducing the expression of firefly luciferase. The light emitted by photoproteins of V1a cell lines as well as the light emitted by firefly luciferase of V2 cell lines corresponds to the activation or inhibition of the respective vasopressin receptor. The bioluminescence of the cell lines is detected using a suitable luminometer [Milligan G, Marshall F, Rees S, Trends in Pharmacological Sciences 17, 235-237 (1996)].
Vasopressin V1a Receptor Cell Lines:
On the day before the assay, the cells are plated out in culture medium (DMEM/F12, 2% FCS, 2 mM glutamine, 10 mM HEPES, 5 μg/ml coelenterazine) in 384-well microtiter plates and kept in a cell incubator (96% humidity, 5% v/v CO2, 37° C.). On the day of the assay, test compounds in various concentrations are placed for 10 minutes in the wells of the microtiter plate before the agonist [Arg^8]-vasopressin at EC50 concentration is added. The resulting light signal is measured immediately in a luminometer.

human V2 receptor = target: T2, human V2 receptor (Homo sapiens, UniProt P30518); assay: Cellular in vitro assay for vasopressin receptor activity, V2 receptor cell line (CRE-luciferase); format: cell-based; conditions: Table 1A; CHO cell line transfected with human V2 receptor; [Arg8]-vasopressin at EC50; read-out: IC50 hV2
T2 construct: expressed in transfected cells; host or cells: CHO K1 (ATCC) expressing firefly luciferase under a CRE-responsive promoter
T2 sequence (P30518 whole entry): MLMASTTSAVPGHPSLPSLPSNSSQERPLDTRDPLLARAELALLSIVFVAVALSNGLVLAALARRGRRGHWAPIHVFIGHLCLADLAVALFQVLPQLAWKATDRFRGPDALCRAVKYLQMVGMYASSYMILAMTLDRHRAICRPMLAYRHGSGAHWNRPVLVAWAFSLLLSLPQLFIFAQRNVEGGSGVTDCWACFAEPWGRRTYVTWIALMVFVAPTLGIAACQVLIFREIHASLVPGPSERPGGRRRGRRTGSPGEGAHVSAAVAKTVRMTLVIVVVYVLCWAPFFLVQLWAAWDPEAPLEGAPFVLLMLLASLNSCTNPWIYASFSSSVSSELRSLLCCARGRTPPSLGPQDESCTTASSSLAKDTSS
Procedure: as §1, §2
Vasopressin V2 Receptor Cell Lines:
On the day before the assay, the cells are plated out in culture medium (DMEM/F12, 2% FCS, 2 mM glutamine, 10 mM HEPES) in 384-well microtiter plates and kept in a cell incubator (96% humidity, 5% v/v CO2, 37° C.). On the day of the assay, test compounds in various concentrations and the agonist [Arg^8]-vasopressin at EC50 concentration are added together to the wells, and plates are incubated for 3 hours in a cell incubator. Upon addition of the cell lysis reagent Triton™ and the substrate luciferin, luminescence of firefly luciferase is measured in a luminometer.

Row | Structure (SMILES) | IC50 (human V1a receptor) [nM] | ratio IC50 hV2/hV1a (human V1a receptor) | IC50 (human V2 receptor) [nM]
1 | NC(=O)c1nc(Cn2nc(-c3ccc(Cl)cc3)n(CC(=O)C(F)(F)F)c2=O)nn1-c1ccccc1C(F)(F)F [Example 8, 3-{[3-(4-chlorophenyl)-5-oxo-4-(3,3,3-trifluoro-2-oxopropyl)-4,5-dihydro-H-1,2,4-triazol-1-yl]methyl}-1-[2-(trifluoromethyl)phenyl]-1H-1,2,4-triazole-5-carboxamide (ketone form) or 3-{[3-(4-chlorophenyl)-5-oxo-4-(3,3,3-trifluoro-2,2-dihydroxypropyl)-4,5-dihydro-H-1,2,4-triazol-1-yl]methyl}-1-[2-(trifluoromethyl)phenyl]-1H-1,2,4-triazole-5-carboxamide (hydrate form)] | 1.85 | 18.2 | 33.7
2 | CS(=O)(=O)c1ccccc1-n1nc(Cn2nc(-c3ccc(Cl)cc3)n(C[C@H](O)C(F)(F)F)c2=O)nc1C(N)=O [Example 7, 3-({3-(4-Chlorophenyl)-5-oxo-4-[(2S)-3,3,3-trifluoro-2-hydroxypropyl]-4,5-dihydro-1H-1,2,4-triazol-1-yl}methyl)-1-[2-(methylsulfonyl)phenyl]-1H-1,2,4-triazole-5-carboxamide] | 17.5 | 40.7 | 712
3 | CNC(=O)c1ccccc1-n1nc(Cn2nc(-c3ccc(Cl)cc3)n(C[C@H](O)C(F)(F)F)c2=O)nc1C(N)=O [Example 6, 3-({3-(4-Chlorophenyl)-5-oxo-4-[(2S)-3,3,3-trifluoro-2-hydroxypropyl]-4,5-dihydro-1H-1,2,4-triazol-1-yl}methyl)-1-[2-(methylcarbamoyl)phenyl]-1H-1,2,4-triazole-5-carboxamide] | 12.9 | 75.6 | 975
4 | NC(=O)c1nc(Cn2nc(-c3ccc(Cl)cc3)n(C[C@H](O)C(F)(F)F)c2=O)nn1-c1ccccc1C(F)(F)F [Example 1, 3-({3-(4-Chlorophenyl)-5-oxo-4-[(2S)-3,3,3-trifluoro-2-hydroxypropyl]-4,5-dihydro-H-1,2,4-triazol-1-yl}methyl)-1-[2-(trifluoromethyl)phenyl]-1H-1,2,4-triazole-5-carboxamide] | 0.58 | 41.4 | 23.9
5 | NC(=O)c1nc(Cn2nc(-c3ccc(Cl)cc3)n(C[C@@H](O)C(F)(F)F)c2=O)nn1-c1ccccc1C(F)(F)F [Example 2, 3-({3-(4-Chlorophenyl)-5-oxo-4-[(2R)-3,3,3-trifluoro-2-hydroxypropyl]-4,5-dihydro-1H-1,2,4-triazol-1-yl}methyl)-1-[2-(trifluoromethyl)phenyl]-1H-1,2,4-triazole-5-carboxamide] | 2.35 | 74.5 | 175
6 | NC(=O)c1nc(Cn2nc(-c3ccc(Cl)cc3)n(CC(=O)C(F)(F)F)c2=O)nn1-c1ccccc1OC(F)(F)F [Example 9, 3-{[3-(4-chlorophenyl)-5-oxo-4-(3,3,3-trifluoro-2-oxopropyl)-4,5-dihydro-H-1,2,4-triazol-1-yl]methyl}-1-[2-(trifluoromethoxy)phenyl]-1H-1,2,4-triazole-5-carboxamide (ketone form) or 3-{[3-(4-chlorophenyl)-5-oxo-4-(3,3,3-trifluoro-2,2-dihydroxypropyl)-4,5-dihydro-1H-1,2,4-triazol-1-yl]methyl}-1-[2-(trifluoromethoxy)phenyl]-1H-1,2,4-triazole-5-carboxamide (hydrate form)] | 8.95 | 11.9 | 106

Other lines, results leading:

Row | IC50 (human V1a receptor) [nM] | ratio IC50 hV2/hV1a (human V1a receptor) | IC50 (human V2 receptor) [nM] | Structure (SMILES)
7 | 1.25 | 60.4 | 75.5 | NC(=O)c1nc(Cn2nc(-c3ccc(Cl)cc3)n(C[C@H](O)C(F)(F)F)c2=O)nn1-c1ccccc1OC(F)(F)F [Example 3, 3-({3-(4-Chlorophenyl)-5-oxo-4-[(2S)-3,3,3-trifluoro-2-hydroxypropyl]-4,5-dihydro-1H-1,2,4-triazol-1-yl}methyl)-1-[2-(trifluoromethoxy)phenyl]-1H-1,2,4-triazole-5-carboxamide]
8 | 1.6 | 24.1 | 38.5 | CCOc1ccccc1-n1nc(Cn2nc(-c3ccc(Cl)cc3)n(C[C@H](O)C(F)(F)F)c2=O)nc1C(N)=O [Example 5, 3-({3-(4-Chlorophenyl)-5-oxo-4-[(2S)-3,3,3-trifluoro-2-hydroxypropyl]-4,5-dihydro-1H-1,2,4-triazol-1-yl}methyl)-1-(2-ethoxyphenyl)-1H-1,2,4-triazole-5-carboxamide]
9 | 9.65 | 68.9 | 665 | NC(=O)c1nc(Cn2nc(-c3ccc(Cl)cc3)n(C[C@@H](O)C(F)(F)F)c2=O)nn1-c1ccccc1OC(F)(F)F [Example 4, 3-({3-(4-Chlorophenyl)-5-oxo-4-[(2R)-3,3,3-trifluoro-2-hydroxypropyl]-4,5-dihydro-1H-1,2,4-triazol-1-yl}methyl)-1-[2-(trifluoromethoxy)phenyl]-1H-1,2,4-triazole-5-carboxamide]
10 | 8.2 | 108.5 | 890 | CCOc1ccccc1-n1nc(Cn2nc(-c3ccc(Cl)cc3)n(C[C@@H](O)C(F)(F)F)c2=O)nc1C(N)=O [Example 10, 3-({3-(4-Chlorophenyl)-5-oxo-4-[(2R)-3,3,3-trifluoro-2-hydroxypropyl]-4,5-dihydro-H-1,2,4-triazol-1-yl}methyl)-1-(2-ethoxyphenyl)-1H-1,2,4-triazole-5-carboxamide]
